From US20240115569A1, “METHODS FOR BLOCKING HER2 SIGNALING FOR TREATING PULMONARY FIBROSIS” (CEDARS-SINAI MEDICAL CENTER, priority 2021, published 2024)

Experiments:
[1] = tested on: human lung fibroblasts; assay: Fibroblast migration assay (BioCoat control insert); type: cell-based; details: 24 hours, PDGF-BB chemoattractant
Protocol: (§1) Fibroblast migration and invasion assays were performed as previously described (Geng et al., 2019; L1 et al., 2011). In brief, fibroblasts were loaded into the top chamber of a Corning BioCoat Control cell culture insert containing a polycarbonate membrane with 8.0 µm pores (for migration) or a BioCoat Matrigel Invasion Chamber (BD Sciences; for invasion). All other settings were the same for the cell migration assay as for the cell invasion assay.
(§2) PDGF-BB (10 ng/ml, Peprotech) was used as a chemoattractant in the bottom chamber. After 24 hours culture at 37° C. with 5% CO2, invasive cells that had passed through the matrigel layer and clung to the bottom of the insert membrane were determined as invasive fibroblasts. Cells remaining in the upper chamber were defined as non-invasive fibroblasts. For quantification of the migration and invasion indices, the membrane filters containing cells were fixed and stained with the Protocol Hema 3 stain set (Thermo Fisher Scientific) and counted in 5 randomly chosen fields per filter from triplicate filters per sample at ×40 magnification. […] The cell migration or the cell invasion index was calculated as the number of cells attached to the bottom of control or Matrigel-coated membranes after 24 hours, normalized to respective control lung fibroblasts.

[2] = tested on: human lung fibroblasts; assay: Fibroblast invasion assay (BioCoat Matrigel Invasion Chamber); type: cell-based; details: 24 hours, PDGF-BB chemoattractant
Protocol: as §1, §2

[3] = tested on: fibroblasts; assay: Calcein AM cell viability assay; type: cell-based, human; details: Lapatinib treated cells for 24 hours
Protocol: Cell growth rate of si-CTL and si-FENDRR fibroblasts were measured by IncuCyte ZOOM Live Cell Analysis System (Essen BioScience). The viability of lapatinib-treated fibroblasts or control fibroblasts was examined by Calcein AM Cell Viability Assay Kit (Trevigen).

[4] = tested on: NSG mice injected with SEMA7A high IPF fibroblasts; assay: Humanized SCID mouse model of IPF; type: in vivo; details: assessed on day 63
Protocol: Humanized SCID mouse model of IPF was generated as previously reported (Trujillo et al., 2010). Female NOD-scid-IL2Rγc−/− (NSG) mice (6 to 8 weeks old) were purchased from the Jackson Laboratory. The NSG mice received single-cell preparations of SEMA7A high and negative IPF lung fibroblasts (0.5×10^6 cells/mouse) via tail vein injection. […] For the anti-ERBB2 antibody studies, mice were injected with IgG1 (InVivoPlus human IgG1 isotype control, Bio X Cell) or anti-HER2 (Pertuzumab, kindly provided by Genentech) twice per week, 100 μg/mouse from day 35 to 63. Lung fibrosis was assessed on day 63 after fibroblast transfer. The left lobe was used for histology and right lobes were used for hydroxyproline assay after right ventricle perfusion to clear the blood in lungs.

[5] = tested on: C57BL/6J mice; assay: Bleomycin-induced lung fibrosis; type: in vivo, mouse; details: 1.25 U/kg bleomycin intratracheal; gavaged every day; 21 days; vs vehicle; trichrome and hydroxyproline
Description: Control animals received saline alone. The tracheostomy site was sutured, and the animals were allowed to recover. […] Mice were euthanized 21 days after bleomycin treatment, and lung tissues were collected for experiments.

[6] = tested on: SEMA7A; assay: Western blot of SEMA7A in IPF lung fibroblasts; type: cell-based, human; details: increasing concentration
[7] = tested on: FOXF1; assay: Western blot of FOXF1 in IPF lung fibroblasts; type: cell-based, human; details: increasing concentration
[8] = tested on: SEMA7A, F3, and ITGA6; assay: Flow cytometry of cell surface markers of invasive fibroblasts; type: cell-based, human; details: IPF lung fibroblasts after Lapatinib treatment
Protocol: Briefly, cells were resuspended in Hank's balanced saline solution supplemented with 2% FBS, 10 mM […] , 0.1 mM EDTA, Antibiotic-Antimycotic. […] 4',6-diamidino-2-phenylindole (DA-PI) was used to discriminate dead cells.

[9] = tested on: IPF lung fibroblasts; assay: qRT-PCR of genes specific to invasive or non-invasive fibroblasts; type: cell-based, human; details: IPF lung fibroblasts after Lapatinib treatment
Protocol: Small interfering RNA (siRNA) knockdown assays were performed using Lipofectamin RNAiMAX Transfection Reagent following the manufacturer's protocol (Thermo Fisher Scientific). Commercial si-RNA used were listed: si-FOXF1 (Santa Cruz Biotechnology, sc-60655), si-CREBRF (Santa Cruz Biotechnology, sc-91839), si-TSC22D1 (Thermo Fisher Scientific, 16708), si-MXI1 (Santa Cruz Biotechnology, sc-35835), si-KLF9 (Santa Cruz Biotechnology, sc-37716), si-NFE2L2 (Santa Cruz Biotechnology, sc-37030), si-HMGA2 (Santa Cruz Biotechnology, sc-37994) si-DPF3 (Santa Cruz Biotechnology, sc-92150) and si-LIN00152 (Dharmacon, SMARTpool: Lincode CYTOR siRNA). Si-FENDRR were synthesized by Integrated DNA Technologies (IDT) (Table 1). RNA was isolated using RNeasy Mini kit (QIAGEN) following the manufacturer's protocol. […] Reverse Transcriptase (Progema) was used for cDNA synthesis. Gene expression was measured relative to the endogenous reference gene GAPDH using the comparative ACT method. The primer sequences used were listed (Table 1).

[10] = tested on: IPF; details: IPF patients; cited from earlier work
[11] = different doses of Lapatinib or DMSO

CS(=O)(=O)CCNCc1ccc(-c2ccc3ncnc(Nc4ccc(OCc5cccc(F)c5)c(Cl)c4)c3c2)o1 [Lapatinib]
fibroblast migration [1, 11]: inhibited fibroblast migration and invasion in a dose dependent manner
fibroblast invasion [2, 11]: inhibited fibroblast migration and invasion in a dose dependent manner
fibroblast viability [3]: no effect on fibroblast viability
lung fibrosis ([4]; 50 mg/kg every other day from day 35 to day 63, vs vehicle, trichrome and hydroxyproline): significantly decreased lung fibrosis
bleomycin-induced lung fibrosis [5]: blunted bleomycin-induced lung fibrosis
total protein levels of SEMA7A [6]: decreased
total protein levels of FOXF1 [7]: increased
cell surface expression of SEMA7A, F3, and ITGA6 [8]: decreased protein levels
RNA levels of other representative genes specific to invasive or non-invasive fibroblasts [9]: reversed to a non-invasive state

COC(=O)c1ccc2c(c1)NC(=O)/C2=C(\Nc1ccc(N(C)C(=O)CN2CCN(C)CC2)cc1)c1ccccc1 [nintedanib]
lung function / fibrosis [10]: neither of these agents improves lung function or reduces fibrosis
rate of decline in the forced vital capacity [10]: reduce the rate of decline in the forced vital capacity

Cc1ccc(=O)n(-c2ccccc2)c1 [pirfenidone]
lung function / fibrosis [10]: neither of these agents improves lung function or reduces fibrosis
rate of decline in the forced vital capacity [10]: reduce the rate of decline in the forced vital capacity

Pertuzumab: humanized monoclonal antibody that binds to the extracellular domain II of HER2
fibroblast migration ([1]; Pertuzumab or IgG1): significantly reduced fibroblast migration and invasion
fibroblast invasion ([2]; Pertuzumab or IgG1): significantly reduced fibroblast migration and invasion
lung fibrosis ([4]; 100 μg/mouse twice per week from day 35 to 63, vs IgG1): significantly decreased lung fibrosis
